Results as given in US8377691B2 (priority 2006, dated 2013).
“Also recorded” adds a separate entry of the source.

Assays:
Assay type in all cases: biochemical
[1] = target: B/M2 Lee40 (Influenza B virus, UniProt P03493)
[2] = target: A/M2 PR8/34 (V27S31) (Influenza A virus, UniProt P06821, A27V/N31S)
[3] = target: A/M2 PR8/34 (Influenza A virus, UniProt P06821)
[4] = target: A/M2 Udorn72 with a mutation (S31N) (Influenza A virus, UniProt P0DOF5, S31N)

SMILES	H+ transport across VLP membranes (fluorescence) [1]	H+ translocation across VLP membranes (fluorescence) [2]	H+ transport across VLP membranes (fluorescence) [3]	H+ transport across VLP membranes (fluorescence) [4]
NC12CC3CC(CC(C3)C1)C2 [amantadine]	exerted no effect	in the absence, but not in the presence of 100 μM of the drug	exerted no effect; also recorded: in the presence or absence of amantadine	resistant to inhibition
CC(N)C12CC3CC(CC(C3)C1)C2 (stereo not drawn) [rimantadine]	exerted no effect		exerted no effect	
